Measured values from article PMC11748363, “Antimicrobial and Antiproliferative Properties of 2‐Phenyl‐N‐(Pyridin‐2‐yl)acetamides” (Chemical Biology & Drug Design, 2025).
In brackets after ≈: the same amount, converted by molar mass. Where two headings read alike, the source gives them in different places.

Key:
[1] = system: Mycolicibacterium aurum DSM 43999; test: Antimycobacterial microdilution broth MIC (resazurin), M. aurum; type: cell-based; settings: DSM43999, read-out: MIC M. aurum
HepG2 cell line = test: Cytotoxicity CellTiter 96, HepG2; type: cell-based, human; settings: 24 h incubation, ^c compound precipitated in the testing medium, ^d over the limit of tested concentrations
Procedure: Human hepatocellular liver carcinoma cell line HepG2 purchased from Health Protection Agency Culture Collections (ECACC, Salisbury, UK) was cultured in MEM (Minimum Essentials Eagle Medium, Sigma–Aldrich) supplemented with 10% fetal bovine serum (PAA Laboratories, Pasching, Austria), 1% L-glutamine solution (Sigma–Aldrich) and non-essential amino acid solution (Sigma–Aldrich) in a humidified atmosphere containing 5% CO2 at 37 °C. For subculturing, the cells were harvested after trypsin/EDTA (Sigma–Aldrich) treatment at 37 °C. To evaluate cytotoxicity, the cells treated with the tested substances were used as experimental groups whereas untreated HepG2 cells served as controls. The cells were seeded in density 10,000 cells per well in a 96 well plate. The next day the cells were treated with each of the tested substances dissolved in DMSO. The tested substances were

[2] = system: Staphylococcus aureus CCM 4223, ATCC 29213; test: Antibacterial microdilution broth MIC, SA; type: cell-based; settings: Staphylococcus aureus
[3] = system: Staphylococcus aureus subsp. aureus CCM 4750, ATCC 43300 (MRSA); test: Antibacterial microdilution broth MIC, MRSA; type: cell-based; settings: Staphylococcus aureus
[4] = system: Staphylococcus epidermidis CCM 4418, ATCC 12228; test: Antibacterial microdilution broth MIC, SE; type: cell-based
[5] = system: Enterococcus faecalis CCM 4224, ATCC 29212; test: Antibacterial microdilution broth MIC, EF; type: cell-based
[6] = system: Acinetobacter baumannii DSM 30007, ATCC 19606; test: Antibacterial microdilution broth MIC, ACI; type: cell-based
[7] = system: Pseudomonas aeruginosa CCM 3955, ATCC 27853; test: Antibacterial microdilution broth MIC, PA; type: cell-based
[8] = system: Candida albicans CCM 8320, ATCC 24433; test: Antifungal microdilution broth MIC, CA
[9] = system: Candida krusei CCM 8271, ATCC 6258; test: Antifungal microdilution broth MIC, CK; settings: Pichia kudriavzevii
[10] = system: Candida parapsilosis CCM 8260, ATCC 22019; test: Antifungal microdilution broth MIC, CP; settings: Lodderomyces parapsilosis
[11] = system: Candida tropicalis CCM 8264, ATCC 750; test: Antifungal microdilution broth MIC, CT
[12] = system: Aspergillus fumigatus ATCC 204305; test: Antifungal microdilution broth MIC, AF
[13] = system: Lichtheimia corymbifera CCM 8077; test: Antifungal microdilution broth MIC, LC
[14] = system: Trichophyton interdigitale CCM 8377, ATCC 9533; test: Antifungal microdilution broth MIC, TI; settings: Trichophyton interdigitale
[15] = system: Aspergillus flavus CCM 8363; test: Antifungal microdilution broth MIC, AFla
[16] = system: Klebsiella pneumoniae CCM 4415, ATCC 10031; test: Antibacterial microdilution broth MIC, KP
A498 cell line = test: Cytotoxicity CellTiter 96, A498; type: cell-based; settings: Homo sapiens, 24 h incubation
Procedure: (§1) The cytotoxicity of final compounds was determined in human hepatocellular carcinoma cell line HepG2. Additional testing of selected compounds was performed on human epithelial kidney cancer cell line A498, human prostate cancer cell line PC‐3, human glioblastoma cell line U‐87 MG, and normal human proximal tubule cell line HK‐2.
(§2) Cytotoxicity determination […]
(§3) For subculturing, the cells were harvested after trypsin/EDTA (Sigma–Aldrich) treatment at 37 °C. To evaluate cytotoxicity, the cells treated with the tested substances were used as experimental groups whereas untreated HepG2 cells served as controls. The cells were seeded in density 10,000 cells per well in a 96 well plate. The next day the cells were treated with each of the tested substances dissolved in DMSO. The tested substances were […]
(§4) in triplicates according to their solubility. Simultaneously, the controls representing 100% cell viability, 0% cell viability (the cells treated with 10% DMSO), no cell control and vehiculum controls were also […]
(§5) the reagent from the kit CellTiter 96 AQueous One Solution Cell Proliferation Assay (CellTiter 96; PROMEGA, Fitchburg, USA) was added. After 2h incubation at 37 °C, absorbance of samples was recorded at 490 nm (TECAN, Infinita M200, Austria). A standard toxicological parameter IC50 was calculated by nonlinear regression from a semilogarithmic plot of incubation concentration versus percentage of absorbance relative to untre ated controls using GraphPad Prism 8 software.
Human epithelial kidney carcinoma A498 cell line, obtained from American Type Culture Collection (ATCC, Manassas, VA, USA, catalogue No.: HTB -44), was cultured in RPMI medium, Human normal kidney proximal tubule HK-2 cell line obtained from ATCC (ATCC, Manassas, VA, USA, catalogue No.:
(§6) Kaighn's Modification of Ham's F-12 Medium and human glioblastoma astrocytoma U-87 MG cell line, […]
Glucose medium. All cultures were supplemented with 10% fetal bovine serum, 1% non-essential amino acids (A498, HK-2 and U-87 MG), 1% sodium pyruvate (A498, HK-2 and U-87 MG) and 2 mM L-glutamine. […]

PC‐3 cell line = test: Cytotoxicity CellTiter 96, PC-3; type: cell-based; settings: Homo sapiens, 24 h incubation
Procedure: as §1, §2, §3, §4
as §5, with “software. […]” for “software.”
as §6
(§7) Glucose medium. All cultures were supplemented with 10% fetal bovine serum, 1% non-essential amino acids (A498, HK-2 and U-87 MG), 1% sodium pyruvate (A498, HK-2 and U-87 MG) and 2 mM L-glutamine. All cell culture consumables were purchased from Merck (Darmstadt, Germany). The cells

U‐87 MG cell line = test: Cytotoxicity CellTiter 96, U-87 MG; type: cell-based; settings: Homo sapiens, 24 h incubation
Procedure: as §1, §2, §3, §4
as §5, with “software. […]” for “software.”
as §6, §7

[17] = ATCC204305, 24 h, read-out: MIC AF 24h
[18] = ATCC204305, 48 h, read-out: MIC AF 48h
[19] = CCM8077, 24 h, read-out: MIC LC 24h
[20] = CCM8077, 48 h, read-out: MIC LC 48h
[21] = CCM8363, 24 h, read-out: MIC AFla 24h
[22] = CCM8363, 48 h, read-out: MIC AFla 48h

| Structure (SMILES) | MIC [1] | IC50 (HepG2 cell line; Homo sapiens, HepG2, 24 h) | MIC ([2]; 24 h, read-out: MIC SA 24h) | MIC ([2]; 48 h, read-out: MIC SA 48h) | MIC ([3]; 24 h, read-out: MIC MRSA 24h) | MIC ([3]; 48 h, read-out: MIC MRSA 48h) | MIC ([4]; 24 h, read-out: MIC SE 24h) | MIC ([4]; 48 h, read-out: MIC SE 48h) | MIC ([5]; 24 h, read-out: MIC EF 24h) | MIC ([5]; 48 h, read-out: MIC EF 48h) | MIC ([6]; 24 h, read-out: MIC ACI 24h) | MIC ([6]; 48 h, read-out: MIC ACI 48h) | MIC ([7]; 24 h, read-out: MIC PA 24h) | MIC ([7]; 48 h, read-out: MIC PA 48h) | MIC ([8]; 24 h, read-out: MIC CA 24h) | MIC ([8]; 48 h, read-out: MIC CA 48h) | MIC ([9]; 24 h, read-out: MIC CK 24h) | MIC ([9]; 48 h, read-out: MIC CK 48h) | MIC ([10]; 24 h, read-out: MIC CP 24h) | MIC ([10]; 48 h, read-out: MIC CP 48h) | also measured |
| --- | --- | --- | --- | --- | --- | --- | --- | --- | --- | --- | --- | --- | --- | --- | --- | --- | --- | --- | --- | --- | --- |
| COc1ccc(CC(=O)Nc2cccc(Cl)n2)cc1 [Compound 12, 2-(4-methoxyphenyl)-N-(6-chloropyridin-2-yl)acetamide] | 62.5 µg/mL (≈ 226 µM) | > 500 µM | 500 µM (≈ 138 µg/mL) | 500 µM (≈ 138 µg/mL) | 500 µM (≈ 138 µg/mL) | > 500 µM | 500 µM (≈ 138 µg/mL) | > 500 µM | 500 µM (≈ 138 µg/mL) | 500 µM (≈ 138 µg/mL) | > 500 µM | > 500 µM | > 500 µM | > 500 µM | > 500 µM | > 500 µM | > 500 µM | > 500 µM | > 500 µM | > 500 µM | IC50 (HepG2 cell line): 516 µM; MIC ([11]; 24 h, read-out: MIC CT 24h): > 500 µM; MIC ([11]; 48 h, read-out: MIC CT 48h): > 500 µM; MIC [12, 17]: > 500 µM; MIC [12, 18]: > 500 µM; MIC [13, 19]: > 500 µM; MIC [13, 20]: > 500 µM; MIC ([14]; 72 h, read-out: MIC TI 72h): > 500 µM; MIC ([14]; 120 h, read-out: MIC TI 120h): > 500 µM; MIC [15, 21]: > 500 µM; MIC [15, 22]: > 500 µM; MIC KP 24h [16]: > 500 µM; MIC KP 48h [16]: > 500 µM |
| O=C(Cc1cccc(Cl)c1)Nc1ccc(Cl)cn1 [Compound 17, 2-(3-chlorophenyl)-N-(5-chloropyridin-2-yl)acetamide] | 250 µg/mL (≈ 889 µM) | 112 µM | > 500 µM | > 500 µM | > 500 µM | > 500 µM | > 500 µM | > 500 µM | > 500 µM | > 500 µM | > 500 µM | > 500 µM | > 500 µM | > 500 µM | > 500 µM | > 500 µM | > 500 µM | > 500 µM | > 500 µM | > 500 µM | IC50 (A498 cell line): 135 µM; IC50 (PC‐3 cell line): 213 µM; IC50 (U‐87 MG cell line): 161 µM; MIC ([11]; 24 h, read-out: MIC CT 24h): > 500 µM; MIC ([11]; 48 h, read-out: MIC CT 48h): > 500 µM; MIC [12, 17]: > 500 µM; MIC [12, 18]: > 500 µM; MIC [13, 19]: > 500 µM; MIC [13, 20]: > 500 µM; MIC ([14]; 72 h, read-out: MIC TI 72h): 500 µM (≈ 141 µg/mL); MIC ([14]; 120 h, read-out: MIC TI 120h): 500 µM (≈ 141 µg/mL); MIC [15, 21]: > 500 µM; MIC [15, 22]: > 500 µM; MIC KP 24h [16]: > 500 µM; MIC KP 48h [16]: > 500 µM |
| O=C(Cc1ccccc1C(F)(F)F)Nc1cccc(Cl)n1 [Compound 24] | > 500 µg/mL | 64.6 µM | > 500 µM | > 500 µM | > 500 µM | > 500 µM | > 500 µM | > 500 µM | > 500 µM | > 500 µM | > 500 µM | > 500 µM | > 500 µM | > 500 µM | > 500 µM | > 500 µM | > 500 µM | > 500 µM | > 500 µM | > 500 µM | IC50 (A498 cell line): 278 µM; IC50 (PC‐3 cell line): > 100 µM; IC50 (U‐87 MG cell line): > 250 µM; MIC ([11]; 24 h, read-out: MIC CT 24h): > 500 µM; MIC ([11]; 48 h, read-out: MIC CT 48h): > 500 µM; MIC [12, 17]: > 500 µM; MIC [12, 18]: > 500 µM; MIC [13, 19]: > 500 µM; MIC [13, 20]: > 500 µM; MIC ([14]; 72 h, read-out: MIC TI 72h): 500 µM (≈ 157 µg/mL); MIC ([14]; 120 h, read-out: MIC TI 120h): 500 µM (≈ 157 µg/mL); MIC [15, 21]: > 500 µM; MIC [15, 22]: > 500 µM; MIC KP 24h [16]: > 500 µM; MIC KP 48h [16]: > 500 µM |
| O=C(Cc1cccc(C(F)(F)F)c1)Nc1ccc(Cl)cn1 [Compound 26] | > 500 µg/mL | 52.9 µM | > 500 µM | > 500 µM | > 500 µM | > 500 µM | > 500 µM | > 500 µM | > 500 µM | > 500 µM | > 500 µM | > 500 µM | > 500 µM | > 500 µM | > 500 µM | > 500 µM | > 500 µM | > 500 µM | > 500 µM | > 500 µM | IC50 (A498 cell line): 128 µM; IC50 (PC‐3 cell line): 73.1 µM; IC50 (U‐87 MG cell line): 158 µM; MIC ([11]; 24 h, read-out: MIC CT 24h): > 500 µM; MIC ([11]; 48 h, read-out: MIC CT 48h): > 500 µM; MIC [12, 17]: > 500 µM; MIC [12, 18]: > 500 µM; MIC [13, 19]: > 500 µM; MIC [13, 20]: > 500 µM; MIC ([14]; 72 h, read-out: MIC TI 72h): 500 µM (≈ 157 µg/mL); MIC ([14]; 120 h, read-out: MIC TI 120h): 500 µM (≈ 157 µg/mL); MIC [15, 21]: > 500 µM; MIC [15, 22]: > 500 µM; MIC KP 24h [16]: > 500 µM; MIC KP 48h [16]: > 500 µM |
